This note sets out measurements from patent US20070092879A1, “Fluoresence-based dna primase assays” (AstraZeneca AB, priority 2003, published 2007).

This assay concerns the target E. coli DNA primase (Escherichia coli, UniProt P0ABS5). The assay is described as follows: Fluorescence-based E. coli DNA primase HTS assay in the presence of helicase (SYBR Green II). The assay is classed as biochemical. The note with it: for inhibition of primase activity: 50 mM salt. As to the method: The reaction was carried out on a Costar 384-well black plate. The reaction volume was 30 μl. The final concentrations in the reaction were 50 mM Tris-HCl, pH 7.5, 10 mM Mg(OAc)2, 10 mM DTT, 25 mM potassium glutamate, 0.003% Brij-35, 200 nM DNA, 25 nM helicase, 75 nM E. coli DNA primase, 200 μM ATP and 200 μM GTP. To perform the HTS assay, 2 μl of compound/DMSO solution or aqueous DMSO solution was incubated with 23 μl of a reaction premix at room temperature for 15 min. The reaction premix was a 1.3× concentrated reaction solution without NTPs. After the incubation, 5 μl of a substrate solution with 1.2 mM ATP and 1.2 mM GTP were added to initiate the reaction. The reaction was incubated at room temperature for 40 min. Then 25 μl of a 30×SYBR Green II solution with 1.2 M NaCl was added and the fluorescence was measured (excitation at 485 nm, emission at 535 nm).
A dideoxy NTP was used as a positive inhibitory control for the primase reaction. […] Since ddATP competes with NTP (ATP in this case) in the primase reaction, the IC50 value was dependent on the substrate (ATP) concentration. Under the HTS conditions used, the IC50 of ddATP was 10 μM

A word on the Km: it is the concentration of substrate that gives half-maximal velocity. A word on the IC50: it is the midpoint of a concentration-inhibition curve.

Chain of E. coli DNA primase (P0ABS5 whole entry): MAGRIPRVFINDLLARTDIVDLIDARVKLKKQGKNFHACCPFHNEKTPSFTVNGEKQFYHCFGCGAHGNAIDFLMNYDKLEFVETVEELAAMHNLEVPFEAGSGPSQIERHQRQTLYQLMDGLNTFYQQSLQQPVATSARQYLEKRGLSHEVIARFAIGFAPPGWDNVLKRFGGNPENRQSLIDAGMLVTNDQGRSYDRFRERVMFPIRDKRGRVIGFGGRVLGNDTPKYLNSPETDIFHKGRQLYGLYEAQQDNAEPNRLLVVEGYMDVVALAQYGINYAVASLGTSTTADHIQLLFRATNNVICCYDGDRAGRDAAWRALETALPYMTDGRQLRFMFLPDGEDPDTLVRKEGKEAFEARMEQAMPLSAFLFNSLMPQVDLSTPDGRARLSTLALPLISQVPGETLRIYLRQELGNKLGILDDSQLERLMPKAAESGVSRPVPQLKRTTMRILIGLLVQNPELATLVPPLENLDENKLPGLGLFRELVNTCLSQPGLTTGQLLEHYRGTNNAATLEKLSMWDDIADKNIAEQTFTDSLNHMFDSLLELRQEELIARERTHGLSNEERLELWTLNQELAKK

Regarding “5′-CTCTCTCTCTCTCTCTCTCTCTCTCTCTCTCTCTGCAAAGC-3′ [DNA7]”, the Km (DNA template concentration dependence, FIG. 5, read-out: apparent Km for DNA) amounted to 0.105 µM. Turning to `[Cl-].[K+]` [KCl], the “inhibition of primase activity” value was “approximately 50%”. Turning to `[Cl-].[Na+]` [NaCl], the “inhibition of primase activity” value is listed as “approximately 50%”. In the case of `Nc1ncnc2c1ncn2[C@H]1CC[C@@H](COP(=O)(O)OP(=O)(O)OP(=O)(O)O)O1` [ddATP], the 50% inhibitory concentration (IC50) (HTS conditions, 200 μM ATP and 200 μM GTP, IC50 dependent on ATP concentration (competes with ATP), read-out: IC50 of inhibition of primase activity) came to 10 µM.
